Data from US12221432B2, “Estrogen receptor antagonist” (CHIA TAI TIANQING PHARMACEUTICAL GROUP CO., LTD., priority 2018, dated 2025).
Where a name gives a salt, the structure may show the parent alone.

How the values were obtained:
P-gp (human MDR1) = experiment: MDR1-MDCK two-way permeability assay; type: in vitro ADME, canine; conditions: dog
Source text: In this study, the MDR1-MDCKII cell line authorized by the Piet Borst Laboratory of the Netherlands Cancer Institute was used as the in vitro model. It is a Madin-Darby canine kidney cell transfected with human multiple drug resistance gene (MDR1). The cells can stably express the efflux transporter P-gp, so it is suitable for screening P-gp substrates or inhibitors and predicting the permeability of the compounds through barriers with high efflux effects in the duodenum, blood-brain barrier, […] and kidney units, etc. This study was intended to use MDR1-MDCK II cells for investigating the two-way permeability of the test compounds through the MDR1-MDCK II cell model.
Procedures: The standard conditions are as follows: • Test concentration: 2 μM (DMSO≤1%); • Replicate: n=2; • Direction: Two-way transport, including two directions: A→B and B→A; • Incubation time: single time point, 2.5 hours; • Transport buffer: HBSS buffer containing 10 mM Hepes, pH 7.4; Incubation condition: 37° C., 5% CO2.
After the incubation, sample solutions at the dosing end and the receiving end were collected and mixed with the cold acetonitrile solution containing the internal standard immediately. LC/MS/MS method was used to analyze the concentration of the test compounds in all samples (including the initial dosing solution, the dosing end samples and the receiving end samples). The apparent permeability coefficient, efflux ratio and other parameters were calculated.

[1] = Metabolic stability in liver microsome (SD rat); type: in vitro ADME, SD rats
Method: Objective: To determine the metabolic stability of test compounds in the liver microsomes of humans, CD-1 5 mice and SD rats (Corning Co., Ltd., Miaotong Biological Technology Co., Ltd., Miaotong Biological Technology Co., Ltd.).
Procedures: Firstly, eight 96-well plates were prepared, and named T0, T5, T10, T20, T30, T60, NCF60 and BLANK; except for BLANK (added with buffer at 10 μL/well), the plates were added with the solution of compounds at 10 μL/well. Prepared microsomes were added to the 7 plates (80 μL/well), except for the T0 10 plate. The NCF60 plate was added with the buffer at 10 μL/well, and incubated in a 37° C. water bath, and timing was started:
Prepared NADPH cofactor working solution was aliquoted into a 96-well shallow-well plate serving as a loading slot. Each plates was added with the solution to at 10 μL/well by a 96-channel pipette and incubated in a 37° C. water bath to start the reaction:
At each time point, termination solution (cold acetonitrile containing 100 ng/mL Tolbutamide and 100 ng/mL Labetalol as internal standard) was added at 300 μL/well to stop the reaction, and the mixture was mixed well; the mixture was centrifuged at 4000 rpm for 20 minutes to precipitate the protein; the supernatant was transferred at 100 μL/well to a new 96-well plate containing 300 μL/well of HPLC water with a 96-channel pipette, and the mixture was mixed well. […]

CC/C(=C(/c1ccc(OCCNC/C=C/C(=O)N(C)C)nc1)c1[nH]c2ccccc2c1Cl)c1ccccc1 [Compound 3 monohydrochloride]
Papp A→B at 2.5 h, 2 μM (P-gp (human MDR1); MDCK-MDR1, A-B, pH 7.4): 0.44 ×10⁻⁶ cm/s | Papp B→A at 2.5 h, 2 μM (P-gp (human MDR1); MDCK-MDR1, B-A, pH 7.4): 1.93 ×10⁻⁶ cm/s | efflux ratio at 2.5 h, 2 μM (P-gp (human MDR1); MDCK-MDR1, pH 7.4, B-A/A-B): 4.39 | Stability in liver microsomes [1]: 35
